Patent US20240199635A1, “TETRAHYDROTHIENO PYRIDINE DERIVATIVES AS DDRS INHIBITORS” (CHIESI FARMACEUTICI S.P.A., priority 2021, published 2024)
Where two headings read alike, the source gives them in different places.

What was measured:
DDR1 [1] = target: T1, DDR1 (Homo sapiens (Human), UniProt Q08345); experiment: DDR1 cell based assay (PathHunter U2OS DDR1 assay); details: U2OS-DDR1 cells, Type II Collagen stimulation, potency class
Procedure: The inhibition of DDR1 receptor activation by compounds was evaluated by PathHunter® U2OS DDR1 assay (Eurofins DiscoverX), according to the manufacturer's instructions. Briefly, U2OS-DDR1 cells were seeded in white 384-well plates at a density of 5000 cells/well and incubated for 2 hours at 37° C. and 5% CO2. Cells were then treated with compounds at different concentrations and incubated for 30 minutes, before stimulation with bovine Type II Collagen 20 μg/ml and incubation overnight at 37° C. and 5% CO2. PathHunter Detection Reagents were prepared according to the protocol provided by DiscoverX and 20 μl/well of this mix were added to each well. After incubating the plates for 1 hour at room temperature in the dark, luminescence signal was acquired with a plate reader. Raw data were normalized to vehicle control (0% for normalization) and positive control (100% for normalization; cells treated with 20 μg/ml collagen II) and IC50 parameters were calculated in GraphPad Prism 8.0 software, using sigmoidal dose-response curve fitting with variable slope.

DDR1 [2] = target: T1, DDR1; experiment: DDR1 binding assay (LanthaScreen Europium Kinase Binding assay)
Procedure: (§1) DDR1 and DDR2 binding assays were performed using Life Technologies LanthaScreen™ Europium Kinase Binding assay. The compounds were incubated with 5 nM DDR1 (Carna Biosciences) or 5 nM DDR2 (Life Technologies) for 1 hour at room temperature in white 384-well OptiPlate (PerkinElmer), containing 20 nM or 10 nM Kinase Tracer 178 respectively and 2 nM Europium labelled anti-GST antibody (Life Technologies) in assay buffer (50 mM HEPES pH 7.5, 10 mM MgCl2, 1 mM EGTA and 0.01% BRIJ35).
(§2) The ratio of fluorescence emission 665 nm/615 nm after excitation at 340 nm was obtained using the Tecan Spark 20M plate reader. IC50 values were determined in GraphPad Prism 7.0 software, using 4 parameter model: log(inhibitor) vs. response. IC50 values were converted in Ki using the Cheng-Prusoff equation (Ki=IC50/(1+[Tracer]/Kd).

DDR2 = DDR2 (Homo sapiens (Human), UniProt Q16832); experiment: DDR2 binding assay (LanthaScreen Europium Kinase Binding assay)
Chain of DDR2 (Q16832 22-855): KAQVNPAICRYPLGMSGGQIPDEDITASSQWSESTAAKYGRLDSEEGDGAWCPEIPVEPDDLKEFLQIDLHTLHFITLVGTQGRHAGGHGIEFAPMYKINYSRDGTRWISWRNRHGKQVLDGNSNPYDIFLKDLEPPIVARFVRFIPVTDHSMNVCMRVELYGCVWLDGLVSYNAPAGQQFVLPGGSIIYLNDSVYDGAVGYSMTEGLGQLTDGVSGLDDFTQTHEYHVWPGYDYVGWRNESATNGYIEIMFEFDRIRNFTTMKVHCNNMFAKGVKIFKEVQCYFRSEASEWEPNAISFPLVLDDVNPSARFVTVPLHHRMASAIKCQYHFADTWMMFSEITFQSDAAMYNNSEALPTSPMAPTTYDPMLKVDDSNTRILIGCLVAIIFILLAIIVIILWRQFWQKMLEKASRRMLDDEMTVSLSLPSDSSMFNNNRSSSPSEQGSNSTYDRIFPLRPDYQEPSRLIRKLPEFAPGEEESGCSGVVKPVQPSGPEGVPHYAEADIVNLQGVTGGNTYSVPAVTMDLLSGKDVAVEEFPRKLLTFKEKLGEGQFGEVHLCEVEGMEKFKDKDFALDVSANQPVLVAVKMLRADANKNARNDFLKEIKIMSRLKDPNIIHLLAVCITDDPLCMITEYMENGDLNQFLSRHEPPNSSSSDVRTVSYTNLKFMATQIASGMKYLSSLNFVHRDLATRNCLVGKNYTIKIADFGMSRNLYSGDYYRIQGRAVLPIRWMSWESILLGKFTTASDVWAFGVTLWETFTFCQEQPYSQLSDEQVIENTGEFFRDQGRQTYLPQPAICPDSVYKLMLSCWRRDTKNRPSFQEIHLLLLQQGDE
Procedure: as §1, §2

[3] = potency class, read-out: Ki DDR1
[4] = potency class, read-out: Ki DDR2

T1 sequence (Q08345 19-913): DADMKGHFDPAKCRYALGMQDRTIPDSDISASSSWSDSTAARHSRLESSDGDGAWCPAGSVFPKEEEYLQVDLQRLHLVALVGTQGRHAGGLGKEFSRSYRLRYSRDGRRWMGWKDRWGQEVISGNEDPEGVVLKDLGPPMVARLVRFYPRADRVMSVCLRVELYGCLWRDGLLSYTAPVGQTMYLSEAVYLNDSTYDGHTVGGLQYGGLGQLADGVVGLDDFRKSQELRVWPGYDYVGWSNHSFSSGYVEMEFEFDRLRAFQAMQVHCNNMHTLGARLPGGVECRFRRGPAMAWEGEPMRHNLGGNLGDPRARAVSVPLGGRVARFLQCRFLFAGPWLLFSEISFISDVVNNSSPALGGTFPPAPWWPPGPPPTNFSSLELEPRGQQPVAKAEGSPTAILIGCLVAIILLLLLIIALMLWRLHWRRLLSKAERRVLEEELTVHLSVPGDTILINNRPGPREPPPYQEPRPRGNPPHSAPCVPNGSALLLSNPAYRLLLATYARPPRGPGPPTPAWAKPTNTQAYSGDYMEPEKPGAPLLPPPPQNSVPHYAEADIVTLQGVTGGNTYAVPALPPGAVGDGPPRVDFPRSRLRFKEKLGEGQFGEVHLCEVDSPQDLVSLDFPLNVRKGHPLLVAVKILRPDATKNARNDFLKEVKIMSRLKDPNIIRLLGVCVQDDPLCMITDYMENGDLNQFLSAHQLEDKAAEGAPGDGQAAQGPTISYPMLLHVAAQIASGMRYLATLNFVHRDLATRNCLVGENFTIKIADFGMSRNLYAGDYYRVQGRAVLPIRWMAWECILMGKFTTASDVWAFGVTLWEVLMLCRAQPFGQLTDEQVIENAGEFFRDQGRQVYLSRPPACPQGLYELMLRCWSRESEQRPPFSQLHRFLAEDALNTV

Compound	IC50 (DDR1 [1]) [nM]	Ki (DDR1 [2]; [3]) [nM]	Ki (DDR2; [4]) [nM]	Ki (DDR1 [2]; read-out: DDR1 Ki) [nM]	Ki (DDR2; read-out: DDR2 Ki) [nM]
CN1CCN(Cc2cc(NC(=O)c3csc4c3CCN(Cc3cccnc3)C4)cc(C(F)(F)F)c2)CC1 [Example 1, N-(3-((4-methylpiperazin-1-yl)methyl)-5-(trifluoromethyl)phenyl)-6-(pyridin-3-ylmethyl)-4,5,6,7-tetrahydrothieno[2,3-c]pyridine-3-carboxamide]	50 to 80	< 25	25 to 50		
CN1CCN(Cc2cc(NC(=O)c3csc4c3CCN(Cc3cncnc3)C4)cc(C(F)(F)F)c2)CC1 [Example 2, N-(3-((4-methylpiperazin-1-yl)methyl)-5-(trifluoromethyl)phenyl)-6-(pyrimidin-5-ylmethyl)-4,5,6,7-tetrahydrothieno[2,3-c]pyridine-3-carboxamide]	50 to 80	25 to 50	50 to 80		
Cc1cn(-c2cc(NC(=O)c3csc4c3CCN(Cc3cncnc3)C4)cc(C(F)(F)F)c2)cn1 [Example 3, N-(3-(4-methyl-1H-imidazol-1-yl)-5-(trifluoromethyl)phenyl)-6-(pyrimidin-5-ylmethyl)-4,5,6,7-tetrahydrothieno[2,3-c]pyridine-3-carboxamide]	25 to 50	< 25	< 25		
CC(C)(c1cc(NC(=O)c2csc3c2CCN(Cc2cncnc2)C3)no1)C(F)(F)F [Example 6, 6-(pyrimidin-5-ylmethyl)-N-(5-(1,1,1-trifluoro-2-methylpropan-2-yl)isoxazol-3-yl)-4,5,6,7-tetrahydrothieno[2,3-c]pyridine-3-carboxamide]	25 to 50	< 25	< 25		
O=C(Nc1cc(F)cc(OC(F)(F)F)c1)c1csc2c1CCN(Cc1cncnc1)C2 [Example 7, N-(3-fluoro-5-(trifluoromethoxy)phenyl)-6-(pyrimidin-5-ylmethyl)-4,5,6,7-tetrahydrothieno[2,3-c]pyridine-3-carboxamide]	< 25	< 25	< 25		
O=C(Nc1ccc(F)c(OC(F)(F)F)c1)c1csc2c1CCN(Cc1cncnc1)C2 [Example 10, N-(4-fluoro-3-(trifluoromethoxy)phenyl)-6-(pyrimidin-5-ylmethyl)-4,5,6,7-tetrahydrothieno[2,3-c]pyridine-3-carboxamide]	< 25	< 25	< 25		
O=C(Nc1cc(F)cc(OC(F)F)c1)c1csc2c1CCN(Cc1cncnc1)C2 [Example 12, N-(3-(difluoromethoxy)-5-fluorophenyl)-6-(pyrimidin-5-ylmethyl)-4,5,6,7-tetrahydrothieno[2,3-c]pyridine-3-carboxamide]	25 to 50	< 25	< 25		
O=C(Nc1cccc(OC(F)F)c1)c1csc2c1CCN(Cc1cncnc1)C2 [Example 13, N-(3-(difluoromethoxy)phenyl)-6-(pyrimidin-5-ylmethyl)-4,5,6,7-tetrahydrothieno[2,3-c]pyridine-3-carboxamide]	50 to 80	< 25	< 25		
Cn1nc(C(C)(C)C)cc1NC(=O)c1csc2c1CCN(Cc1nccnc1N)C2 [Example 15, 6-((3-aminopyrazin-2-yl)methyl)-N-(3-(tert-butyl)-1-methyl-1H-pyrazol-5-yl)-4,5,6,7-tetrahydrothieno[2,3-c]pyridine-3-carboxamide]	25 to 50	< 25	< 25		
Cn1nc(C(C)(C)C)cc1NC(=O)c1csc2c1CCN(Cc1cnc(N)nc1)C2 [Example 26, 6-((2-aminopyrimidin-5-yl)methyl)-N-(3-(tert-butyl)-1-methyl-1H-pyrazol-5-yl)-4,5,6,7-tetrahydrothieno[2,3-c]pyridine-3-carboxamide]	25 to 50	< 25	25 to 50		
CN1CCN(Cc2cc(NC(=O)c3csc4c3CCN(c3cncnc3)C4)cc(C(F)(F)F)c2)CC1 [Example C1, N-(3-((4-methylpiperazin-1-yl)methyl)-5-(trifluoromethyl)phenyl)-6-(pyrimidin-5-yl)-4,5,6,7-tetrahydrothieno[2,3-c]pyridine-3-carboxamide]				238	172
Cc1cn(-c2cc(NC(=O)c3cc4c(s3)CN(c3cncnc3)CC4)cc(C(F)(F)F)c2)cn1 [Example C2]				29000	50000

Other lines, results leading:

IC50 (DDR1 [1]) [nM]	Ki (DDR1 [2]; [3]) [nM]	Ki (DDR2; [4]) [nM]	Ki (DDR1 [2]; read-out: DDR1 Ki) [nM]	Ki (DDR2; read-out: DDR2 Ki) [nM]	Compound
50 to 80	< 25	< 25			O=C(Nc1ccc(F)c(C(F)(F)F)c1)c1csc2c1CCN(Cc1cncnc1)C2 [Example 8, N-(4-fluoro-3-(trifluoromethyl)phenyl)-6-(pyrimidin-5-ylmethyl)-4,5,6,7-tetrahydrothieno[2,3-c]pyridine-3-carboxamide]
50 to 80	< 25	< 25			CC(F)(F)c1cccc(NC(=O)c2csc3c2CCN(Cc2cncnc2)C3)c1 [Example 9, N-(3-(1,1-difluoroethyl)phenyl)-6-(pyrimidin-5-ylmethyl)-4,5,6,7-tetrahydrothieno[2,3-c]pyridine-3-carboxamide]
50 to 80	< 25	< 25			O=C(Nc1cc(C(F)(F)F)ccc1F)c1csc2c1CCN(Cc1cncnc1)C2 [Example 11, N-(2-fluoro-5-(trifluoromethyl)phenyl)-6-(pyrimidin-5-ylmethyl)-4,5,6,7-tetrahydrothieno[2,3-c]pyridine-3-carboxamide]
< 25	< 25	< 25			N#Cc1cc(NC(=O)c2csc3c2CCN(Cc2cncnc2)C3)cc(C(F)(F)F)c1 [Example 14, N-(3-cyano-5-(trifluoromethyl)phenyl)-6-(pyrimidin-5-ylmethyl)-4,5,6,7-tetrahydrothieno[2,3-c]pyridine-3-carboxamide]
25 to 50	< 25	25 to 50			COCC(=O)Nc1ccncc1CN1CCc2c(C(=O)Nc3cccc(C(F)(F)F)c3)csc2C1 [Example 17, 6-((4-(2-methoxyacetamido)pyridin-3-yl)methyl)-N-(3-(trifluoromethyl)phenyl)-4,5,6,7-tetrahydrothieno[2,3-c]pyridine-3-carboxamide]
25 to 50	< 25	< 25			N#Cc1cncc(CN2CCc3c(C(=O)Nc4cccc(C(F)(F)F)c4)csc3C2)c1 [Example 19, 6-((5-cyanopyridin-3-yl)methyl)-N-(3-(trifluoromethyl)phenyl)-4,5,6,7-tetrahydrothieno[2,3-c]pyridine-3-carboxamide]
25 to 50	< 25	< 25			O=C(Nc1cccc(C(F)(F)F)c1)c1csc2c1CCN(Cc1cncc(Cl)c1)C2 [Example 20, 6-((5-chloropyridin-3-yl)methyl)-N-(3-(trifluoromethyl)phenyl)-4,5,6,7-tetrahydrothieno[2,3-c]pyridine-3-carboxamide]
< 25	< 25	< 25			COc1cncc(CN2CCc3c(C(=O)Nc4cccc(C(F)(F)F)c4)csc3C2)c1 [Example 21, 6-((5-methoxypyridin-3-yl)methyl)-N-(3-(trifluoromethyl)phenyl)-4,5,6,7-tetrahydrothieno[2,3-c]pyridine-3-carboxamide]
50 to 80	< 25	< 25			Cc1cncc(CN2CCc3c(C(=O)Nc4cccc(C(F)(F)F)c4)csc3C2)c1 [Example 22, 6-((5-methylpyridin-3-yl)methyl)-N-(3-(trifluoromethyl)phenyl)-4,5,6,7-tetrahydrothieno[2,3-c]pyridine-3-carboxamide]
25 to 50	< 25	< 25			O=C(Nc1cccc(C(F)(F)F)c1)c1csc2c1CCN(Cc1cncc(C(F)(F)F)c1)C2 [Example 23, N-(3-(trifluoromethyl)phenyl)-6-((5-(trifluoromethyl)pyridin-3-yl)methyl)-4,5,6,7-tetrahydrothieno[2,3-c]pyridine-3-carboxamide]
25 to 50	< 25	< 25			O=C(Nc1cccc(C(F)(F)F)c1)c1csc2c1CCN(Cc1cncc(F)c1)C2 [Example 24, 6-((5-fluoropyridin-3-yl)methyl)-N-(3-(trifluoromethyl)phenyl)-4,5,6,7-tetrahydrothieno[2,3-c]pyridine-3-carboxamide]
25 to 50	< 25	< 25			O=C(Nc1cccc(C(F)(F)F)c1)c1csc2c1CCN(Cc1cccnc1)C2 [Example 25, 6-(pyridin-3-ylmethyl)-N-(3-(trifluoromethyl)phenyl)-4,5,6,7-tetrahydrothieno[2,3-c]pyridine-3-carboxamide]
< 25	< 25	< 25			Nc1nccnc1CN1CCc2c(C(=O)Nc3cccc(C(F)(F)F)c3)csc2C1 [Example 27, 6-((3-aminopyrazin-2-yl)methyl)-N-(3-(trifluoromethyl)phenyl)-4,5,6,7-tetrahydrothieno[2,3-c]pyridine-3-carboxamide]
